The results in this text go back to patent publication US8846566B2, “Composition for controlling plant diseases and method for controlling plant diseases” (Sumitomo Chemical Company, Limited, priority 2008, dated 2014).

What all share (assay type): in vivo
The test system of assay [1] is Botrytis cinerea, pathogen of gray mold of cucumber. Kind of assay: Test Example 3: foliage application on cucumber, gray mold control (with ipconazole). Conditions: 6 days after inoculation. The procedure:
Control value=100(A−B)/A “Equation 1”;
Generally, the control value expected for the case where the given two kinds of active ingredient compounds are mixed and used for the treatment, the so-called control value expectation is calculated from the following Colby's calculating equation. E=X+Y−(X×Y)/100 “Equation 2”; […]
A plastic pot was filled with sandy soil, and cucumber (Sagamihanjiro) was then disseminated. […] The diameter of infected area on the plants on which the agents had been sprayed was determined as the incidence of disease at the time of checking and the control value was calculated by the aforementioned Equation 1 based on the incidence of disease thus determined.
As a comparison, the respective wettable powders described above were diluted with water in predetermined concentration so as to prepare a compound (1b) liquid and an ipconazole liquid respectively and they were subjected to similar disease control test. Besides, in order to calculate the control value, the incidence of disease was also determined in the case in which the plants has not been treated with the agent.

For assay [2], the system named is Rhizoctonia solani, pathogen of cucumber damping-off. The assay is described as follows: Test Example 4: smear treatment of cucumber seeds, damping-off control (with ipconazole). As to conditions: ipconazole alone 1 g/100 kg-seed, seventh day. The procedure: Control value=100(A−B)/A “Equation 1”; Generally, the control value expected for the case where the given two kinds of active ingredient compounds are mixed and used for the treatment, the so-called control value expectation is calculated from the following Colby's calculating equation. E=X+Y−(X×Y)/100 “Equation 2”; E: Control value (%) expected for the case in which active ingredient compound A in M ppm, in M g per 100 kg of seeds or in M g per 1 hectare and active ingredient compound B in N ppm, in N g per 100 kg of seeds or in N g per 1 hectare are mixed and used for treatment (hereinbelow referred to as “control value expectation”) “Synergetic effect(%)”=(Actual control value)×100/(Control value expectation) The results are shown in Table 3. […] They were allowed to grow in a greenhouse while irrigated and the number of non-budding seeds was checked on the seventh day after the dissemination and the incidence of disease was calculated by the aforementioned Equation 3. The control value was calculated by the aforementioned Equation 1 based on the incidence of disease. In order to calculate the control value, the incidence of disease was also determined in the case in which the plants had not been treated with the agent. […]

In assay [3] the test system is Botrytis cinerea, pathogen of gray mold of cucumber. Kind of assay: Test Example 1: foliage application on cucumber, gray mold control (with metconazole). Conditions: 6 days after inoculation. From the text: A plastic pot was filled with sandy soil, and cucumber (Sagamihanjiro) was then disseminated. The cucumber was allowed to grow in a green house for 12 days. A wettable powder of the compound (1b) and a commercially available metconazole formulation (Caramba (registered trademark) produced by BASF) were respectively diluted with water and then tank-mixed so as to prepare tank-mixed liquids containing compound (1b) and metconazole in predetermined concentration. The tank-mixed liquids were subjected to foliage application such that they could be sufficiently adhered to the leaves of the aforementioned cucumber plants. After completion of the foliage application, the plants were air-dried. […] The diameter of infected area on the plants on which the agents had been sprayed was determined as the incidence of disease at the time of checking and the control value was calculated by Equation 1 based on the incidence of disease thus determined.
As a comparison, the respective wettable powders described above were diluted with water in predetermined concentration so as to prepare a compound (1b) liquid and a metconazole liquid respectively and they were subjected to similar disease control test. Besides, in order to calculate the control value, the incidence of disease was also determined in the case in which the plants had not been treated with the agent. […]

Assay [4] concerns Rhizoctonia solani, pathogen of cucumber damping-off. Kind of assay: Test Example 2: smear treatment of cucumber seeds, damping-off control (with metconazole). As to conditions: metconazole alone 1 g/100 kg-seed, seventh day. As for the experimental part:
Control value=100(A−B)/A “Equation 1”; Generally, the control value expected for the case where the given two kinds of active ingredient compounds are mixed and used for the treatment, the so-called control value expectation is calculated from the following Colby's calculating equation. E=X+Y−(X×Y)/100 “Equation 2”; E: Control value (%) expected for the case in which active ingredient compound A in M ppm, in M g per 100 kg of seeds or in M g per 1 hectare and active ingredient compound B in N ppm, in N g per 100 kg of seeds or in N g per 1 hectare are mixed and used for treatment (hereinbelow referred to as “control value expectation”) “Synergetic effect(%)”=(Actual control value)×100/(Control value expectation) Mixed liquids containing an acetone solution of compound (1b) and an acetone solution of metconazole were prepared. These mixed liquids were used for smear treatment of cucumber (Sagamihanjiro) seeds using a rotary seed treatment machine (seed dresser, produced by Hans-Ulrich Hege GmbH) so as to obtain treated seeds. […] They were allowed to grow in a greenhouse while irrigated and the number of non-budding seeds was checked on the seventh day after the dissemination and the incidence of disease was calculated by Equation 3. The control value was calculated by the aforementioned Equation 1 based on the incidence of disease. […]

For assay [5], the system named is Rhizoctonia solani, pathogen of brown patch of turf. Kind of assay: Test Example 5: foliage application on turf, brown patch control (with metconazole). As to conditions: 10 days after inoculation. As for the experimental part: Control value=100(A−B)/A “Equation 1”; Generally, the control value expected for the case where the given two kinds of active ingredient compounds are mixed and used for the treatment, the so-called control value expectation is calculated from the following Colby's calculating equation. E=X+Y−(X×Y)/100 “Equation 2”; E: Control value (%) expected for the case in which active ingredient compound A in M ppm, in M g per 100 kg of seeds or in M g per 1 hectare and active ingredient compound B in N ppm, in N g per 100 kg of seeds or in N g per 1 hectare are mixed and used for treatment (hereinbelow referred to as “control value expectation”) “Synergetic effect(%)”=(Actual control value)×100/(Control value expectation) A plastic pot was filled with sandy soil, and turf (Bent grass Penncross) was then disseminated. The turf was allowed to grow in a green house for 20 days. A wettable powder of the compound (1b) and a commercially available metconazole formulation (Caramba (registered trademark) produced by BASF) were respectively diluted with water and then tank-mixed so as to prepare tank-mixed liquids containing the compound (1b) and the metconazole in predetermined concentration. The tank-mixed liquids were subjected to foliage application such that they could be sufficiently adhered to the leaves of the aforementioned turf plants. After completion of the foliage application, the plants were air-dried. Thereafter, bran medium containing mycelium of Rhizoctonia solani, pathogen of brown patch of turf, was sprinkled over the planted area. […] The diameter of infected area on the planted area on which the agents had been sprayed was determined as the incidence of disease at the time of checking and the control value was calculated by the aforementioned Equation 1 based on the incidence of disease determined. […] Besides, in order to calculate the control value, the incidence of disease was also determined in the case in which the plants had not been treated with the agent.

Molecules are shown by their SMILES.

With `CC(C)C1CCC(Cc2ccc(Cl)cc2)C1(O)Cn1cncn1` (stereo not drawn) [Ipconazole, ipconazole], the values for the Actual control value in assay [1] (ipconazole alone 3.1 ppm) and in assay [2] were 13% and 30%, respectively.
For the compound `CC1(C)CCC(Cc2ccc(Cl)cc2)C1(O)Cn1cncn1` (stereo not drawn) [Metconazole, metconazole], the Actual control value in assay [3] (metconazole alone 0.8 ppm) worked out at 8%; in assay [4] it was 39%; in assay [5] (metconazole alone 9.4 g/ha) it was 63%; in assay [5] (metconazole alone 37.5 g/ha), 63%.
On to `CNC(=O)C(OC)c1ccccc1COc1cc(C)ccc1C` (racemic) [Compound (1b)], for which the values for the Actual control value in assay [1] (compound (1b) alone 0.2 ppm), in assay [3] (compound (1b) alone 0.2 ppm) and in assay [5] (compound (1b) alone 600 g/ha) were 8%, 16% and 88%, respectively.
